Converted amounts (≈) assume the structure as drawn.
How the values were obtained:
MpaCA = molecular target: T1, MpaCA (Malassezia pachydermatis, UniProt A0A0M8MPA4); test: stopped-flow CO2 hydrase assay; format: biochemical
T1 construct: gene Malapachy_3798
T1 sequence (A0A0M8MPA4 1-242): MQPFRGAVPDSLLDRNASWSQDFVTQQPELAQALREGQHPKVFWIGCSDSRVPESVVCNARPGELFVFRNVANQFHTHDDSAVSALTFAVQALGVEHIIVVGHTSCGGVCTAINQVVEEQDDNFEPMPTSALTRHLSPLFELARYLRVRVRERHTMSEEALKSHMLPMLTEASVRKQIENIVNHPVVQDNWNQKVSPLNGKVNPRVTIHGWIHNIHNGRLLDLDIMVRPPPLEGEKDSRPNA

MgCA [1] = molecular target: T2, MgCA (Malassezia globosa, UniProt A8Q1N3); test: stopped-flow CO2 hydrase assay; format: biochemical
T2 construct: gene MGL_1814
T2 sequence (A8Q1N3 1-241): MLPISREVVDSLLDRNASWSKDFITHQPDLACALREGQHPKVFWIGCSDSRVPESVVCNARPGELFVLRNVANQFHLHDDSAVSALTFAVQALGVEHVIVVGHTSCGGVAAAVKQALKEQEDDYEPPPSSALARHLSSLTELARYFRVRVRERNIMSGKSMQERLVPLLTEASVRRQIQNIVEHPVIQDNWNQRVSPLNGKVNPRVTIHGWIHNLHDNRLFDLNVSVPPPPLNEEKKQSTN
In short: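 Ki was derived by nonlinear least-squares fitting using the Cheng-Prusoff equation. Recombinant carbonic anhydrase at 5–12 nM was first preincubated with inhibitor at room temperature for 15 min. CO2 hydration at 1.7–17 mM CO2 was tracked by stopped-flow over 10–100 s with 0.2 mM phenol red read at 557 nm, in 20 mM Hepes pH 7.4 containing 20 mM Na2SO4. Initial rates were taken from no fewer than six traces with uncatalysed rates subtracted, and at least three determinations were averaged.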

C. albicans = test: microbe, parasite or virus in culture; design: broth microdilution MIC, M. pachydermatis and Candida, 35 °C; settings: Candida albicans
Protocol: (§1) Inoculum preparations for antifungal assays were performed following the CLSI guidelines for antifungal susceptibility testing of yeasts.[31] Antifungal activity was evaluated on unicellular yeasts Candida albicans ATCC 10231, Candida glabrata ATCC 90030 (DSMZ 11226), Malassezia pachydermatis CDC 16334 (DSMZ 6172), Malassezia globosa ATCC MYA 4612, and Malassezia furfur ATCC 14521. All the fungal strains were stored at −80 °C in cryovials. Then Candida spp. and Malassezia pachydermatis were reactivated in RPMI 1640 broth for 24–48 h at 35 °C. The so obtained fresh cultures were streaked onto Sabouraud dextrose agar and incubated for 24–48 h at 35 °C. Malassezia globosa and furfur were reactivated in modified RPMI 1640 broth[32] for 24–48 h at 35 °C (M. furfur) and 33 °C (M. globosa), and then the cultures were streaked onto Leeming and Notman agar (MLNA) and incubated for 48–72 h at 35 °C for M. furfur and at 33 °C for M. globosa. The fungal inoculum for the testing was prepared by suspending in phosphate buffer (PB) 10 mM pH 7 4–5 colonies of about 1 mm diameter. The fungal suspension was then adjusted to a final optical density of 0.5 McFarland standard (1–5 × 10^6 cells/mL). The compound solutions were tested in a range of concentrations from 0.01 μg/mL to 256 μg/mL, and 50 μL were then added in 96 wells microtiter plates with 50 μL of fungal inoculum and incubated for 24–48 h at 35 °C. Growth and sterility controls were performed. […] Compounds 3a, 3c, 5b, 7a–d, 9c, 11e, 11i, and 14a,b were selected as representatives of the chemical moieties synthesized prior to their screen on yeasts of biomedical relevance such as M. pachydermatis DSMZ 6172, C. albicans ATCC 10231, and C. glabrata ATCC 90030 (DSMZ 11226) strains. The clinical used drugs Ketoconazole, SeS2, and Amphotericin B were included as references (Table 1).

C. glabrata DSMZ 11226 = tested on: T3, C. glabrata DSMZ 11226; test: microbe, parasite or virus in culture; design: broth microdilution MIC, M. pachydermatis and Candida, 35 °C; settings: Nakaseomyces glabratus, DSMZ11226
T3 construct: DSMZ 11226 (ATCC 90030)
Protocol: as §1

[2] = tested on: T4, M. pachydermatis DSMZ 6172; test: microbe, parasite or virus in culture; design: broth microdilution MIC, M. pachydermatis and Candida, 35 °C; settings: Malassezia pachydermatis, DSMZ6172
T4 construct: DSMZ 6172 (CDC 16334)
Protocol: as §1

ATCC M. furfur 14521 = tested on: T5, ATCC M. furfur 14521; test: microbe, parasite or virus in culture; settings: Malassezia furfur
T5 construct: ATCC 14521
Protocol: as §1

M. globosa ATCC MYA 4612 = tested on: T6, M. globosa ATCC MYA 4612; test: microbe, parasite or virus in culture; settings: Malassezia globosa
T6 construct: ATCC MYA 4612
Protocol: as §1

MgCA [3] = molecular target: T2, MgCA; test: biochemical; design: stopped-flow CO2 hydration assay, phenol red absorbance at 557 nm, 15 min preincubation, Cheng-Prusoff KI
Protocol: Enzyme concentrations ranged between 5 and 12 nM. […] The presence of the sulfonamide moiety (i.e., either primary/secondary) within our scaffolds prompted us to investigate whether the compounds listed in this study were endowed with modulation features against the enzymatic metalloenzyme carbonic anhydrases (CAs, EC 4.2.1.1) expressed in Malassezia spp. of interest such as M. pachydermatis (MpaCA), M. globosa (MgCA), and M. restricta (MreCA). […] The obtained activities in Table 3 were all reported as KI values.

Structure (SMILES) | Ki (MpaCA) [µM] | Ki (MgCA [1]) [µM] | MIC (C. albicans) [µg/mL] | MIC (C. glabrata DSMZ 11226) [µg/mL] | MIC [2] [µg/mL] | MIC (ATCC M. furfur 14521) [µg/mL] | MIC (M. globosa ATCC MYA 4612) [µg/mL] | Ki (MgCA [3]) [µM]
CC(=O)Oc1ccccc1C(=O)NC(=[Se])Nc1cc(S(N)(=O)=O)ccc1O [11e] | 33.8 | 4.73 | 256 (≈ 561 µM) | 256 (≈ 561 µM) | 0.5 (≈ 1.1 µM) | 0.75 ± 0.67 (≈ 1.64 µM) | 6.7 ± 2.1 (≈ 14.7 µM) | 
NS(=O)(=O)c1ccc(O)c(NC(=[Se])NC(=O)c2cc(Br)cc(OC(F)(F)F)c2)c1 [11i] | 12.7 |  | 64 (≈ 114 µM) | 32 (≈ 57 µM) | 0.5 (≈ 0.891 µM) | 5 ± 2.45 (≈ 8.91 µM) | 64 (≈ 114 µM) | 6.25
Cc1cccc(C(=O)NC(=[Se])Nc2cc(S(N)(=O)=O)ccc2O)c1 [11j] | 14.8 |  |  |  | 0.5 (≈ 1.21 µM) | 16 ± 8.76 (≈ 38.8 µM) | 128 (≈ 310 µM) | 5.64
NS(=O)(=O)c1ccc(NC(=O)Nc2ccccc2F)cc1 [14a] | 0.845 |  | > 256 | > 256 | > 256 | > 256 | > 256 | 6.74
NS(=O)(=O)c1ccc(NC(=S)Nc2ccccc2F)cc1 [14b] | 0.488 |  | > 256 | > 256 | > 256 | > 256 | > 256 | 5.49
O=C(Nc1ccccc1)Nc1ccccc1F [14c] | > 10 |  |  |  | > 256 | > 256 | > 256 | > 10
Fc1ccccc1NC(=S)Nc1ccccc1 [14d] | > 10 |  |  |  | > 256 | 128 (≈ 520 µM) | > 256 | > 10
O=C(NC(=[Se])Nc1ccccc1)c1ccccc1 [16a] | > 10 |  |  |  | 0.8 ± 0.29 (≈ 2.64 µM) | 0.8 ± 0.6 (≈ 2.64 µM) | 29.3 ± 18.7 (≈ 96.6 µM) | > 10
O=C(NC(=[Se])Nc1ccccc1)c1cc(Br)cc(OC(F)(F)F)c1 [16b] | > 10 |  |  |  | 1 (≈ 2.15 µM) | 10.7 ± 4.62 (≈ 23 µM) | 341 ± 148 (≈ 732 µM) | > 10
O=C(NC(=[Se])Nc1ccccc1F)c1ccccc1 [16c] | > 10 |  |  |  | 1 (≈ 3.11 µM) | 2 (≈ 6.23 µM) | 64 (≈ 199 µM) | > 10
O=C(NC(=[Se])Nc1c(F)c(F)cc(F)c1F)c1ccccc1 [16d] | > 10 |  |  |  | 1 (≈ 2.67 µM) | 2.7 ± 1.15 (≈ 7.2 µM) | > 256 | > 10
NS(=O)(=O)c1ccc(C[Se]c2ccc(NC(=[Se])NC(=O)c3cc(Br)cc(OC(F)(F)F)c3)cc2)cc1 [compound 12, 3-Bromo-N-((4-((4-sulfamoylbenzyl)selanyl)phenyl)carbamoselenoyl)-5-(trifluoromethoxy)benzamide] | 71.6 |  |  |  | 6.7 ± 2.3 (≈ 9.38 µM) | 128 (≈ 179 µM) | 256 (≈ 358 µM) | 1.76

— publication PMC9940851, “Seleno Containing Compounds as Potent and Selective Antifungal Agents” (ACS Infectious Diseases, 2022)
